ChEMBL document CHEMBL3286147 (J Med Chem, 2014)
Values belong to the compound of their own block, whether it stands above or below them.

Legend:
Hepatitis C virus [1] = test: Antiviral activity against Hepatitis C virus genotype 1b infected in human HuH7 cells after 72 hrs by FRET assay; format: functional, cell-based, Hepacivirus hominis; settings: Huh-7, 72 h
Hepatitis C virus [2] = test: Selectivity ratio of EC50 for Hepatitis C virus genotype 1b harboring NS5A Y93H mutation to EC50 for Hepatitis C virus genotype 1b; format: functional, Hepacivirus hominis
[3] = tested on: Bovine viral diarrhea virus 1; test: Antiviral activity against Bovine viral diarrhea virus infected in human HuH7 cells after 72 hrs by luciferase reporter gene assay; format: functional, organism-based; settings: Bovine viral diarrhea virus isolates and strains, Huh-7, 72 h
[4] = Cytotoxicity against human HuH7 cells by Alamar blue assay; format: cell-based, Huh-7
[5] = Selectivity ratio of EC50 for Bovine viral diarrhea virus to EC50 for Hepatitis C virus genotype 1b; format: functional
Hepatitis C virus [6] = test: Antiviral activity against Hepatitis C virus genotype 1b; format: functional, Hepacivirus hominis
Hepatitis C virus [7] = test: Antiviral activity against Hepatitis C virus genotype 1 infected in human assessed as log10 IU/ml reduction in mean plasma viral load at 10 mg measured at 24 hrs; format: functional, Hepacivirus hominis
in vivo = settings: rat, liver, 5 mg/kg
Description: Ratio of drug level in liver to plasma in rat at 5 mg/kg

Hepatitis C virus [8] = test: Antiviral activity against Hepatitis C virus genotype 1b infected in human assessed as log10 IU/ml reduction in mean plasma viral load at 100 mg measured at 24 hrs; format: functional, Hepacivirus hominis
Hepatitis C virus [9] = test: Antiviral activity against Hepatitis C virus genotype 1 infected in human assessed as log10 IU/ml reduction in mean plasma viral load at 1 mg measured at 24 hrs; format: functional, Hepacivirus hominis
Hepatitis C virus [10] = test: microbe, parasite or virus in culture; settings: genotype 2a JFH-1
Description: Antiviral activity against Hepatitis C virus genotype 2a JFH

Hepatitis C virus [11] = test: Antiviral activity against Hepatitis C virus genotype 1a; format: functional, Hepacivirus hominis; settings: subtype 1a
Hepatitis C virus [12] = test: Selectivity ratio of EC50 for Hepatitis C virus genotype 1b harboring NS5A L31V/Q54L mutation to EC50 for Hepatitis C virus genotype 1b; format: functional, Hepacivirus hominis

- EC50 (Hepatitis C virus [1]): 5500 nM
SMILES: O=C(Nc1ccc(C2S/C(=N\c3cccc(F)c3)N(Cc3ccco3)C2=O)cc1)[C@@H]1CCCN1C(=O)CCc1ccccc1 (stereo partly drawn)

- EC50 (Hepatitis C virus [1]): 600 nM
SMILES: C[C@H](NC(=O)OCc1ccccc1)C(=O)Nc1ccc(C2S/C(=N\c3cccc(F)c3)N(Cc3cc(F)c(F)c(F)c3)C2=O)cc1 (stereo partly drawn)

- EC50 (Hepatitis C virus [1]): 2 nM
SMILES: O=C(Nc1ccc(C2S/C(=N\c3cccc(F)c3)N(Cc3ccco3)C2=O)cc1)[C@H]1CCCN1C(=O)Cc1ccccc1 (stereo partly drawn)

- EC50 (Hepatitis C virus [1]): 38 nM
SMILES: C[C@H](NC(=O)OCc1ccccc1)C(=O)Nc1ccc(C2S/C(=N\c3cccc(F)c3)N(Cc3cnccn3)C2=O)cc1 (stereo partly drawn)

- EC50 (Hepatitis C virus [1]): 1900 nM
SMILES: C[C@H](NC(=O)CCc1ccccc1)C(=O)Nc1ccc(C2S/C(=N\c3cccc(F)c3)N(Cc3ccco3)C2=O)cc1 (stereo partly drawn)

More lines, now with the values behind:

SMILES: C[C@H](NC(=O)OCc1ccccc1)C(=O)Nc1ccc(C2S/C(=N\c3cccc(F)c3)N(Cc3ccco3)C2=O)cc1 (stereo partly drawn)
- Ratio EC50 (Hepatitis C virus [2]): >5
- EC50 [3]: > 50000 nM
- CC50 [4]: > 50000 nM
- Ratio EC50 [5]: > 50
- EC50 (Hepatitis C virus [1]): 570 nM

SMILES: C[C@H](NC(=O)OCc1ccccc1)C(=O)Nc1ccc(C2S/C(=N\c3ccc(N4CCOCC4)c(F)c3)N(Cc3ccco3)C2=O)cc1 (stereo partly drawn)
- EC50 (Hepatitis C virus [1]): 15 nM

SMILES: O=C1N[C@H]2[C@H](CO[C@H]2CCCCC(=O)N2CCC[C@H]2C(=O)Nc2ccc(/C=C/c3ccc(NC(=O)[C@@H]4CCCN4C(=O)Cc4ccccc4)cc3)cc2)N1
- EC50 (Hepatitis C virus [6]): > 10000 nM

SMILES: O=C(Nc1ccc(C2S/C(=N\c3cccc(F)c3)N(Cc3ccco3)C2=O)cc1)[C@H]1CCCN1C(=O)OCc1ccccc1 (stereo partly drawn)
- EC50 (Hepatitis C virus [1]): 6000 nM

SMILES: COC(=O)N[C@H](C(=O)N1CCC[C@H]1c1ncc(-c2ccc(-c3ccc(-c4cnc([C@@H]5CCCN5C(=O)[C@@H](NC(=O)OC)C(C)C)[nH]4)cc3)cc2)[nH]1)C(C)C
- Activity (Hepatitis C virus [7]): 3.2 log10IU/ml
- Kp (in vivo): 5
- Activity (Hepatitis C virus [8]): 3.6 log10IU/ml
- Activity (Hepatitis C virus [9]): 1.8 log10IU/ml
- EC50 (Hepatitis C virus [10]): 0.028 nM

SMILES: O=C(Nc1ccc(/C=C/c2ccc(NC(=O)[C@@H]3CCCN3C(=O)Cc3ccccc3)cc2)cc1)[C@@H]1CCCN1C(=O)Cc1ccccc1
- EC50 (Hepatitis C virus [11]): > 10000 nM

SMILES: C[C@H](NC(=O)Cc1ccccc1)C(=O)Nc1ccc(C2S/C(=N\c3cccc(F)c3)N(Cc3ccco3)C2=O)cc1 (stereo partly drawn)
- Ratio EC50 (Hepatitis C virus [2]): >625
- Ratio EC50 (Hepatitis C virus [12]): 354
- EC50 (Hepatitis C virus [1]): 5 nM

SMILES: C[C@H](NC(=O)OCc1ccccc1)C(=O)Nc1ccc(C2S/C(=N\c3cccc(F)c3)N(Cc3ccccn3)C2=O)cc1 (stereo partly drawn)
- EC50 (Hepatitis C virus [1]): 2 nM
